The text below walks through data of US20250367215A1, “PHARMACEUTICAL COMBINATION COMPRISING A CHOLANE DERIVATIVE AND A STATIN OR URSODESOXYCHOLIC ACID” (BAR PHARMACEUTICALS SOCIETA' A RESPONSABILITA' LIMITATA, priority 2022, published 2025).

For this assay, the system named is C57BL6 mice. In words: HFD-F diet-induced NASH mouse model, BAR502 and UDCA (Example 2). The assay is classed as in vivo. The conditions noted are these: C57BL6 mice on HFD-F for 61 days; oral from day 6; UDCA 30 mg/kg alone or with BAR502 30 mg/kg. An excerpt:
The mouse model of Example 1 was used once again. Using this mouse model, the inventors therefore investigated the effectiveness of the association between BAR502 and UDCA in preventing the development of NASH.

As to `C[C@H](CCC(=O)O)[C@H]1CC[C@H]2[C@@H]3[C@@H](O)C[C@@H]4C[C@H](O)CC[C@]4(C)[C@H]3CC[C@]12C` [UDCA, ursodesoxycholic acid], the “effect on insulin resistance, glucose load curve (OGTT) (FIG. 9)” value is reported as “beneficial effects on insulin resistance”.
